Results published in ChEMBL document CHEMBL1153181, “SAR of N-phenyl piperidine based oral integrin alpha5beta1 antagonists” (Bioorg Med Chem Lett, 2010).

Experiments:
[1] = Metabolic stability in human microsomes assessed as compound remaining at 1 uM after 1 hr; type: ADME, Microsome; settings: read-out: Stability
Integrin alpha-5/beta-1 [2] = biological target: T1, Integrin alpha-5/beta-1 (Homo sapiens, UniProt P05556+P08648); assay: Inhibition of integrin alpha5beta1 receptor by ELISA; type: protein-complex assay
Integrin alpha-5/beta-1 [3] = biological target: T1, Integrin alpha-5/beta-1; assay: Inhibition of integrin alpha5beta1 receptor-mediated HEK293 cell adhesion; type: cell-based
Integrin alpha-V/beta-5 = Integrin alpha-V/beta-5 (Homo sapiens, UniProt P06756+P18084); assay: Inhibition of integrin […] receptor by ELISA; type: protein-complex assay
Integrin alpha-V/beta-3 = Integrin alpha-V/beta-3 (Homo sapiens, UniProt P05106+P06756); assay: Inhibition of integrin […] receptor by ELISA; type: protein-complex assay
[4] = biological target: Integrin alpha-IIb/beta-3 (Homo sapiens, UniProt P05106+P08514); assay: Inhibition of integrin alpha2bbeta3 receptor by ELISA; type: protein-complex assay
[5] = Elimination half life in Beagle dog at 10 mg/kg, iv administered as bolus dose; type: ADME, organism-based, Canis lupus familiaris; design: dose 10 mg/kg, route intravenous; settings: in vivo, read-out: beta t1/2
[6] = Systemic clearance in Beagle dog at 10 mg/kg, iv administered as bolus dose; type: ADME, organism-based, Canis lupus familiaris; design: dose 10 mg/kg, route intravenous; settings: in vivo
[7] = Oral bioavailability in Beagle dog at 10 mg/kg administered as bolus dose; type: ADME, organism-based, Canis lupus familiaris; settings: in vivo
Canis familiaris = assay: Hepatic blood flow in Beagle dog at 10 mg/kg, iv administered as bolus dose; type: ADME, organism-based, Canis lupus familiaris, Liver; design: dose 10 mg/kg, route intravenous; settings: in vivo
[8] = Oral bioavailability in rat at 10 mg/kg, po; type: ADME, organism-based; settings: in vivo
[9] = Dissociation constant, pKa of the compound; type: physicochemical
[10] = Total body clearance in rat at 1 mg/kg, iv; type: ADME, organism-based; design: dose 1 mg/kg, route intravenous; settings: in vivo
[11] = Metabolic stability in rat microsomes assessed as compound remaining at 1 uM after 1 hr; type: ADME, Microsome; settings: read-out: Stability

Sequence of Integrin alpha-IIb/beta-3 (P05106 27-788 limits assumed): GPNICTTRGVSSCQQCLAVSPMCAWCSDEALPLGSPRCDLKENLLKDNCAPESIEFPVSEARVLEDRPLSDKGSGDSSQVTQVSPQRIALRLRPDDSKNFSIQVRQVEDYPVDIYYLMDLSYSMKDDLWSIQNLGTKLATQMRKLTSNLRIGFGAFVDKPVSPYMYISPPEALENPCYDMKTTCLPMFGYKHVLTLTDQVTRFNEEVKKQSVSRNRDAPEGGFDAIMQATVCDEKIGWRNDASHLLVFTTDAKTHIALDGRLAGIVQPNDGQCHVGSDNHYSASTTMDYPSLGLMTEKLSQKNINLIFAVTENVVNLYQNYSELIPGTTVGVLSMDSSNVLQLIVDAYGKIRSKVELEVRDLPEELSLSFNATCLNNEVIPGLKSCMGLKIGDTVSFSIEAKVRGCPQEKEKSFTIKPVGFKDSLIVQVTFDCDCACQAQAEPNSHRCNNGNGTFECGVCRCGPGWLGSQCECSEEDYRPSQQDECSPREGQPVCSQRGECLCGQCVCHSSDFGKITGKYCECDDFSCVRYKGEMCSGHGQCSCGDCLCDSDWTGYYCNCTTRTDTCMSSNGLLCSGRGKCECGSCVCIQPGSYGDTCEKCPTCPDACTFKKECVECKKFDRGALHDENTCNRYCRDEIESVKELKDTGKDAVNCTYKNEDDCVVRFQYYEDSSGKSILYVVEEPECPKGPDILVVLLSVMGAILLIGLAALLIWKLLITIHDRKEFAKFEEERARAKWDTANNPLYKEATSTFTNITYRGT
Sequence of Integrin alpha-IIb/beta-3 (P08514 32-887 limits assumed): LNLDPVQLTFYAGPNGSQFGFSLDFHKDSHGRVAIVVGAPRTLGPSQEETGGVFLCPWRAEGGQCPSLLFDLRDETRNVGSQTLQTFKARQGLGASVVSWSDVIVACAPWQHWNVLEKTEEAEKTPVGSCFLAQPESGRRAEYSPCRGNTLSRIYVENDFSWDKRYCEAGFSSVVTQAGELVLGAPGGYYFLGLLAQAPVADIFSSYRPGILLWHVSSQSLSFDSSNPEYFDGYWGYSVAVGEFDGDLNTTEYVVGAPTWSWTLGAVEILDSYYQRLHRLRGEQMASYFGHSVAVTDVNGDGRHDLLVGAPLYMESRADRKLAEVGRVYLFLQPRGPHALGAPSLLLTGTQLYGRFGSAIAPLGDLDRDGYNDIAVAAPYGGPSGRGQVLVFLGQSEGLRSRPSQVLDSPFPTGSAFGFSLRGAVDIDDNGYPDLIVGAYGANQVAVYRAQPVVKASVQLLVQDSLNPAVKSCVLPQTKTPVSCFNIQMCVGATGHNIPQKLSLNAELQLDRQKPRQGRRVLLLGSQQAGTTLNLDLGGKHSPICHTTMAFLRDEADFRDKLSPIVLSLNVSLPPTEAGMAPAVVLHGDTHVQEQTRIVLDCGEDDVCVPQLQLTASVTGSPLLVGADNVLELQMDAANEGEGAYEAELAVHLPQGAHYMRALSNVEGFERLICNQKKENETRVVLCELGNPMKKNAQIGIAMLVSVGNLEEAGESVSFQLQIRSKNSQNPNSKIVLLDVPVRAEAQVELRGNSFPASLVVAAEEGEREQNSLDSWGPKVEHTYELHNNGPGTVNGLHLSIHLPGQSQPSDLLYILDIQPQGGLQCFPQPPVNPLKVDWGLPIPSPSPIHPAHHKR
Sequence of Integrin alpha-IIb/beta-3 (P08514 891-1039 limits assumed): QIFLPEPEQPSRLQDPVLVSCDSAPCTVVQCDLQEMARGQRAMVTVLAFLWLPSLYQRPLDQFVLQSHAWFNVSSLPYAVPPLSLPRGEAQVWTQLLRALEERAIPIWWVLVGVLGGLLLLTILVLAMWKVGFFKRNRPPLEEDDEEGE
Sequence of Integrin alpha-V/beta-3 (P05106 27-788 limits assumed): as the sequence (P05106 27-788 limits assumed) above
Sequence of Integrin alpha-V/beta-3 (P06756 31-889 limits assumed): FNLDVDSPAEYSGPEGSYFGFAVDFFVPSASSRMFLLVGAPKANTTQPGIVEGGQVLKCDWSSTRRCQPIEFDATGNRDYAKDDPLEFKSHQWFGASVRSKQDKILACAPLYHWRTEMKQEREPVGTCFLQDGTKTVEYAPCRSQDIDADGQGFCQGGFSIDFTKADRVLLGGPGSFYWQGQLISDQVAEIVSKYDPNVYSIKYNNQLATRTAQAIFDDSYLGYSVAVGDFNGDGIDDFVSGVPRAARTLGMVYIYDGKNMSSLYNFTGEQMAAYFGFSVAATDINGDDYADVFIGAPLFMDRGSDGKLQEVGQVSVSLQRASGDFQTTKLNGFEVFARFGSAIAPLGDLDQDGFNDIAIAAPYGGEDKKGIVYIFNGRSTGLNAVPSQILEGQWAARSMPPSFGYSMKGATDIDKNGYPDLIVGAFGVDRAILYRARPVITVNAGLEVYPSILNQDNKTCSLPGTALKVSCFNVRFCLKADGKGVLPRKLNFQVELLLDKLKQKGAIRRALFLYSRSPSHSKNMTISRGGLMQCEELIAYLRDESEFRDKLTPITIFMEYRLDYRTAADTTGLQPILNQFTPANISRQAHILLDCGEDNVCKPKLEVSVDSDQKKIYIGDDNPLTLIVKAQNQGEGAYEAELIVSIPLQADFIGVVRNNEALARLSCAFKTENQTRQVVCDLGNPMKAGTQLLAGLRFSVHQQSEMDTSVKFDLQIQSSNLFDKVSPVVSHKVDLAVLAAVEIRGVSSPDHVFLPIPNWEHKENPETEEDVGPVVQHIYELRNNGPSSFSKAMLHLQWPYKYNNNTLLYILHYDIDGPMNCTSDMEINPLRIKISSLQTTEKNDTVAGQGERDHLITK
Sequence of Integrin alpha-V/beta-3 (P06756 891-1048 limits assumed): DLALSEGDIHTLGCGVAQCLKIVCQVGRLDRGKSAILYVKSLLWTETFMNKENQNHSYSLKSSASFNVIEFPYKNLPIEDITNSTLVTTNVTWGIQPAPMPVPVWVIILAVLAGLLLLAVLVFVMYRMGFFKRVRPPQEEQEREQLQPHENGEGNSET
Sequence of Integrin alpha-V/beta-5 (P06756 31-889 limits assumed): as the sequence (P06756 31-889 limits assumed) above
Sequence of Integrin alpha-V/beta-5 (P06756 891-1048 limits assumed): as the sequence (P06756 891-1048 limits assumed) above
Sequence of Integrin alpha-V/beta-5 (P18084 24-799 limits assumed): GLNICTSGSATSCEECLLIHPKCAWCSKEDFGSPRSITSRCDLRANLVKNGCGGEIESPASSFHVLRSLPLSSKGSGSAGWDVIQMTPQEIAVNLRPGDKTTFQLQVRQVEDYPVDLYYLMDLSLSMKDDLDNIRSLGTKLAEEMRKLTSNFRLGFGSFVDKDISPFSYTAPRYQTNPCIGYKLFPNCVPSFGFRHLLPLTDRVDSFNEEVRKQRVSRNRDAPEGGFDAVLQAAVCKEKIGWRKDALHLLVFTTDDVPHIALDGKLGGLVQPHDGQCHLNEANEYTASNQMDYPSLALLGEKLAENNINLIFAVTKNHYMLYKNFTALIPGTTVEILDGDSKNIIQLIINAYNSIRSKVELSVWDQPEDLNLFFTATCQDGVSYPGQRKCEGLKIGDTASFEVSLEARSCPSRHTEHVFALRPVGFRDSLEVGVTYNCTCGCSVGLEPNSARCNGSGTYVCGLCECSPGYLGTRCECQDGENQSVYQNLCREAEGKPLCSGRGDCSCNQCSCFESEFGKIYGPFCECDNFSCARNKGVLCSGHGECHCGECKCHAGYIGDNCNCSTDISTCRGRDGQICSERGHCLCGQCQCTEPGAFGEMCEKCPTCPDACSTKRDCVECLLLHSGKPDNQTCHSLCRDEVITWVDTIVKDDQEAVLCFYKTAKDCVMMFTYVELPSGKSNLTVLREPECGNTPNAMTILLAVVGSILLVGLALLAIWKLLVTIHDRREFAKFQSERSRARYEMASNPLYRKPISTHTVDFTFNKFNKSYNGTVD

SMILES | remaining at 1 h, 1 µM [1] [%] | IC50 (Integrin alpha-5/beta-1 [2]) [nM] | IC50 (Integrin alpha-5/beta-1 [3]) [nM] | IC50 (Integrin alpha-V/beta-5) [nM] | IC50 (Integrin alpha-V/beta-3) [nM] | IC50 [4] [nM] | half-life [5] [h] | clearance [6] [mL/min/kg] | bioavailability [7] [%] | LBF (Canis familiaris) [%] | bioavailability [8] [%] | pKa [9] | clearance [10] [mL/min/kg] | remaining at 1 h, 1 µM [11] [%]
CCc1cc(F)cc(C)c1C(=O)NC(Cc1ccc(N2CCC(CNc3ccccn3)CC2)cc1)C(=O)O (stereo not given) | 105 | 2 | 76 | 11700 | 1050 | 71700 | – | – | – | – | – | – | – | –
CCc1cc(F)cc(C)c1C(=O)N[C@@H](Cc1ccc(N2CCC(CNc3ccccn3)CC2)cc1)C(=O)O | – | 0.9 | 21 | 12400 | 614 | 121000 | 3.58 | 11 | 11 | 37 | – | – | – | –
CCc1cc(F)cc(C)c1C(=O)N[C@H](Cc1ccc(N2CCC(CNc3ccccn3)CC2)cc1)C(=O)O | – | 351 | 6910 | 15600 | 16600 | 159000 | – | – | – | – | – | – | – | –
Cc1cc(C)c(C(=O)NC(Cc2ccc(N3CCC(CNc4ccccn4)CC3)cc2)C(=O)O)c(C)c1 (stereo not given) | – | 2.1 | 198 | 15000 | 642 | 40200 | – | – | – | – | 24 | 7 | 16 | 85

Next, values leading:

remaining at 1 h, 1 µM [1] [%] | IC50 (Integrin alpha-5/beta-1 [2]) [nM] | IC50 (Integrin alpha-5/beta-1 [3]) [nM] | IC50 (Integrin alpha-V/beta-5) [nM] | IC50 (Integrin alpha-V/beta-3) [nM] | IC50 [4] [nM] | half-life [5] [h] | clearance [6] [mL/min/kg] | bioavailability [7] [%] | LBF (Canis familiaris) [%] | bioavailability [8] [%] | pKa [9] | clearance [10] [mL/min/kg] | remaining at 1 h, 1 µM [11] [%] | SMILES
– | 0.92 | 34 | 3540 | 89 | – | – | – | – | – | 6 | 7.7 | 110 | 62 | COc1ccnc(NCC2CCN(c3ccc(CC(NC(=O)c4c(C)cc(C)cc4C)C(=O)O)cc3)CC2)c1 (stereo not given)
59 | 1.6 | – | 1870 | 239 | 77700 | – | – | – | – | – | – | – | – | Cc1cccc(C)c1C(=O)NC(Cc1ccc(N2CCC(CNc3ccccn3)CC2)cc1)C(=O)O (stereo not given)
52 | 2.2 | – | 11500 | 648 | 87200 | – | – | – | – | – | – | – | – | CCc1cccc(C)c1C(=O)NC(Cc1ccc(N2CCC(CNc3ccccn3)CC2)cc1)C(=O)O (stereo not given)
69 | 2.7 | – | 8290 | 402 | 105000 | – | – | – | – | – | – | – | – | Cc1cc(F)cc(C)c1C(=O)NC(Cc1ccc(N2CCC(CNc3ccccn3)CC2)cc1)C(=O)O (stereo not given)
– | 234 | – | 3320 | 13.4 | 76700 | – | – | – | – | – | – | – | – | O=C(O)[C@H](Cc1ccc(N2CCC(CNc3ccccn3)CC2)cc1)N1Cc2ccccc2C1=O
– | – | 69 | 10700 | – | 23400 | – | – | – | – | – | 7.5 | – | 77 | Cc1ccnc(NCC2CCN(c3ccc(CC(NC(=O)c4c(C)cc(C)cc4C)C(=O)O)cc3)CC2)c1 (stereo not given)
– | 70 | – | 32.1 | 4.3 | 14800 | – | – | – | – | – | – | – | – | O=C(N[C@@H](Cc1ccc(N2CCC(CNc3ccccn3)CC2)cc1)C(=O)O)c1ccccc1
